What was measured:
[1] = pKa of the acid/base indicator dye; assay type: physicochemical
β-galactosidase = experiment: Substrate evaluation: hydrolysis by β-galactosidase in solution; assay type: biochemical
[2] = 50 mM phosphate buffer pH 7.4 (containing no magnesium)

SMILES	pKa [1]	substrate for β-galactosidase (in words) (β-galactosidase)	Km (β-galactosidase; [2]) [µM]	rate (Kcat) of hydrolysis to give 2 (β-galactosidase; [2])
O=c1ccc2nc3ccc(O)cc3ccc-2c1 [Compound 1, 8-Hydroxy-2H-dibenz[b,f]azepin-2-one]	6.34	–	–	–
O=C1C=CC2=Nc3ccc(O)cc3CCC2=C1 [Compound 2, 8-Hydroxy-10,11-dihydro-2H-dibenz[b,f]azepin-2-one]	6.95	–	–	–
O=c1ccc2nc3ccc(O[C@@H]4O[C@H](CO)[C@H](O)[C@H](O)[C@H]4O)cc3ccc-2c1 [Compound 3, 8-(β-D-galactopyranosyloxy)-2H-dibenz[b,f]azepin-2-one]	–	substrate for β-galactosidase	–	–
O=C1C=CC2=Nc3ccc(O[C@@H]4O[C@H](CO)[C@H](O)[C@H](O)[C@H]4O)cc3CCC2=C1 [Compound 4, 8-(β-D-galactopyranosyloxy)-10,11-dihydro-2H-dibenz [b,f]azepin-2-one]	–	substrate for β-galactosidase	96	7.07×10^3 mol. min^-1 /mol. active site

Reference: US5208326A, “8-hydroxy-2H-dibenz(b,f)azepin-2-one dyes” (Miles Inc., priority 1991, dated 1993)
